# Source: ChEMBL document CHEMBL3046607, “Synthesis and Herbicidal Activity of New 1-Alkyl-3-aryloxypyrazole-4-carboxamide Derivatives” (J Pestic Sci, 2004)
# Activity calls are given as the source filed them. No cut-off for these calls is given here.
# Key:
# [1] = system: Pontederia vaginalis; assay: Post-emergence herbicidal activity against Monochoria vaginalis assessed as bleaching of stem/leaf parts; type: functional, organism-based
# [2] = system: Echinochloa oryzicola; assay: Pre-emergence herbicidal activity against Echinochloa oryzicola at 33 g a.i/ha measured after 14 days; type: functional, organism-based
# [3] = system: Elatine triandra; assay: Pre-emergence herbicidal activity against Elatine triandra at 33 g a.i/ha measured after 14 days; type: functional, organism-based
# [4] = system: Rotala indica; assay: Post-emergence herbicidal activity against Rotala indica assessed as bleaching of stem/leaf parts; type: functional, organism-based
# [5] = system: Cyperus difformis; assay: Pre-emergence herbicidal activity against Cyperus difformis assessed as bleaching of stem/leaf parts; type: functional, organism-based
# [6] = system: Ammannia multiflora; assay: Post-emergence herbicidal activity against Ammannia multiflora assessed as bleaching of stem/leaf parts; type: functional, organism-based
# [7] = system: Lindernia procumbens; assay: Pre-emergence herbicidal activity against Lindernia procumbens at 33 g a.i/ha measured after 14 days; type: functional, organism-based
# [8] = system: Ammannia multiflora; assay: Pre-emergence herbicidal activity against Ammannia multiflora at 33 g a.i/ha measured after 14 days; type: functional, organism-based
# [9] = system: Schoenoplectiella juncoides; assay: Post-emergence herbicidal activity against Schoenoplectiella juncoides assessed as bleaching of stem/leaf parts; type: functional, organism-based; note: test concentration or dose not given here
# [10] = system: Cyperus difformis; assay: Pre-emergence herbicidal activity against Cyperus difformis at 33 g a.i/ha measured after 14 days; type: functional, organism-based
# [11] = system: Elatine triandra; assay: Post-emergence herbicidal activity against Elatine triandra assessed as bleaching of stem/leaf parts; type: functional, organism-based; note: test concentration or dose not given here
# [12] = system: Ammannia multiflora; assay: Pre-emergence herbicidal activity against Ammannia multiflora assessed as bleaching of stem/leaf parts; type: functional, organism-based
# [13] = system: Cyperus difformis; assay: Post-emergence herbicidal activity against Cyperus difformis assessed as bleaching of stem/leaf parts; type: functional, organism-based; note: test concentration or dose not given here
# [14] = system: Schoenoplectiella juncoides; assay: Pre-emergence herbicidal activity against Schoenoplectiella juncoides assessed as bleaching of stem/leaf parts; type: functional, organism-based
# [15] = system: Oryza sativa; assay: Phytotoxicity against Oryza sativa cv. Koshihikari (rice) at 33 g a.i/ha measured after 14 days; type: organism-based; conditions: in vivo, 336 h
# [16] = system: Pontederia vaginalis; assay: Pre-emergence herbicidal activity against Monochoria vaginalis assessed as bleaching of stem/leaf parts; type: functional, organism-based
# [17] = system: Lindernia procumbens; assay: Pre-emergence herbicidal activity against Lindernia procumbens assessed as bleaching of stem/leaf parts; type: functional, organism-based
# [18] = system: Pontederia vaginalis; assay: Pre-emergence herbicidal activity against Monochoria vaginalis at 33 g a.i/ha measured after 14 days; type: functional, organism-based
# [19] = system: Elatine triandra; assay: Pre-emergence herbicidal activity against Elatine triandra assessed as bleaching of stem/leaf parts; type: functional, organism-based
# [20] = system: Rotala indica; assay: Pre-emergence herbicidal activity against Rotala indica assessed as bleaching of stem/leaf parts; type: functional, organism-based
# [21] = system: Rotala indica; assay: Pre-emergence herbicidal activity against Rotala indica at 33 g a.i/ha measured after 14 days; type: functional, organism-based
# [22] = system: Schoenoplectiella juncoides; assay: Pre-emergence herbicidal activity against Schoenoplectiella juncoides at 33 g a.i/ha measured after 14 days; type: functional, organism-based
# [23] = system: Lindernia procumbens; assay: Post-emergence herbicidal activity against Lindernia procumbens assessed as bleaching of stem/leaf parts; type: functional, organism-based; note: test concentration or dose not given here
# [24] = system: Echinochloa oryzicola; assay: Pre-emergence herbicidal activity against Echinochloa oryzicola assessed as bleaching of stem/leaf parts; type: functional, organism-based
# [25] = system: Echinochloa oryzicola; assay: Post-emergence herbicidal activity against Echinochloa oryzicola assessed as bleaching of stem/leaf parts; type: functional, organism-based
SMILES,Activity [1],Activity [2],Activity [3],Activity [4],Activity [5],Activity [6],Activity [7],Activity [8],Activity [9],Activity [11],Activity [12],Activity [13],Activity [14],Activity [15],Activity [16],Activity [17],Activity [18],Activity [19],Activity [20],Activity [21],other results
Cn1cc(C(=O)Nc2ccc(F)cc2)c(Oc2cccc(C(F)(F)F)c2)n1,Active,Active,Active,Active,Active,Active,Active,Active,Active,Active,Active,Active,Active,Non-toxic,Active,Active,Active,Active,Active,Active,Activity [10]: Active; Activity [22]: inactive; Activity [23]: Active; Activity [24]: Active; Activity [25]: Active
Cn1cc(C(=O)Nc2ccc(F)cc2Cl)c(Oc2cccc(C(F)(F)F)c2)n1,Active,Active,Active,Active,Active,Active,Active,Active,Active,Active,Active,Active,Active,Non-toxic,Active,Active,Active,Active,Active,Active,Activity [10]: Active; Activity [22]: Active; Activity [23]: Active; Activity [24]: Active; Activity [25]: Active
Cn1cc(C(=O)Nc2ccccc2Cl)c(Oc2cccc(C(F)(F)F)c2)n1,Active,Active,Active,Active,Active,Active,Active,Active,Active,Active,Active,Active,Active,Non-toxic,Active,Active,Active,Active,Active,Active,Activity [10]: Active; Activity [22]: Active; Activity [23]: Active; Activity [24]: Active; Activity [25]: Active
Cn1cc(C(=O)Nc2ccccc2F)c(Oc2cccc(C(F)(F)F)c2)n1,Active,Active,Active,Active,Active,Active,Active,Active,Active,Active,Active,Active,Active,Non-toxic,Active,Active,Active,Active,Active,Active,Activity [10]: Active; Activity [22]: inactive; Activity [23]: Active; Activity [24]: Active; Activity [25]: Active
Cn1cc(C(=O)Nc2ccc(F)cc2F)c(Oc2ccc(Br)c(C(F)(F)F)c2)n1,Active,inactive,Active,Active,Active,Active,Active,Active,Active,Active,Active,Active,Active,Non-toxic,Active,Active,Active,Active,Active,Active,Activity [10]: Active; Activity [22]: inactive; Activity [23]: Active; Activity [24]: Active; Activity [25]: Active
CCCCn1cc(C(=O)Nc2ccc(F)cc2F)c(Oc2cccc(C(F)(F)F)c2)n1,Active,inactive,inactive,Active,Active,Active,inactive,inactive,Active,Active,Active,Active,Active,Non-toxic,Active,Active,inactive,Active,Active,inactive,Activity [10]: inactive; Activity [22]: inactive; Activity [23]: Active; Activity [24]: Active; Activity [25]: Active
Cn1cc(C(=O)Nc2ccc(Cl)cc2Cl)c(Oc2cccc(C(F)(F)F)c2)n1,Active,inactive,Active,Active,Active,Active,Active,Active,Active,Active,Active,Active,Active,Non-toxic,Active,Active,Active,Active,Active,Active,Activity [10]: Active; Activity [22]: inactive; Activity [23]: Active; Activity [24]: Active; Activity [25]: Active
CC(C)n1cc(C(=O)Nc2ccc(F)cc2F)c(Oc2cccc(C(F)(F)F)c2)n1,Active,inactive,inactive,Active,Active,Active,inactive,inactive,Active,Active,Active,Active,Active,Non-toxic,Active,Active,inactive,Active,Active,inactive,Activity [10]: inactive; Activity [22]: inactive; Activity [23]: Active; Activity [24]: Active; Activity [25]: Active
Cn1cc(C(=O)Nc2cccc(F)c2F)c(Oc2cccc(C(F)(F)F)c2)n1,Active,inactive,Active,Active,Active,Active,Active,Active,Active,Active,Active,Active,Active,Non-toxic,Active,Active,Active,Active,Active,Active,Activity [10]: Active; Activity [22]: inactive; Activity [23]: Active; Activity [24]: Active; Activity [25]: Active
Cn1cc(C(=O)Nc2ccc(F)c(F)c2F)c(Oc2cccc(C(F)(F)F)c2)n1,Active,Active,Active,Active,Active,Active,Active,Active,Active,Active,Active,Active,Active,Non-toxic,Active,Active,Active,Active,Active,Active,Activity [22]: Active; Activity [23]: Active; Activity [24]: Active; Activity [25]: Active
